Data reported in patent publication US7648973B2, “2-methylene-1α,25-dihydroxy-19,21-dinorvitamin D3 analogs and uses thereof” (Wisconsin Alumni Research Foundation, priority 2006, dated 2010).
Entries after “also recorded” stand apart in the source; their conditions may differ.

What was measured:
[1] = biological target: T1, full-length recombinant rat vitamin D receptor (Rattus norvegicus, UniProt P13053); experiment: Vitamin D receptor binding, competition with [3H]-1,25-(OH)2-D3; conditions: compared with 1α,25-dihydroxyvitamin D3; FIG. 1
T1 construct: Full-length recombinant rat receptor was expressed in E. coli BL21(DE3) Codon Plus RIL cells; histidine tag (C); made in house; host or cells: E. coli BL21(DE3) Codon Plus RIL
T1 sequence (P13053 1-423): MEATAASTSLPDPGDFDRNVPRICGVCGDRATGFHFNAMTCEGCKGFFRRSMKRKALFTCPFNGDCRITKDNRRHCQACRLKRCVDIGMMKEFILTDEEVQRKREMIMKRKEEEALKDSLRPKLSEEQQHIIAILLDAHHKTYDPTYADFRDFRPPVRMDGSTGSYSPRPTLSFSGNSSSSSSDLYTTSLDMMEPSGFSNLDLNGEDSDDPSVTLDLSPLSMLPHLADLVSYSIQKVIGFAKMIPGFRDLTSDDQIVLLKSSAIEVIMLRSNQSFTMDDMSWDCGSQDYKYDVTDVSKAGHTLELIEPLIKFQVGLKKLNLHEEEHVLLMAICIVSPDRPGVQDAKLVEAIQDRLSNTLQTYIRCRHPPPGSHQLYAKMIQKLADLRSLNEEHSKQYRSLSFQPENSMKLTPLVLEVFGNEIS
Experimental: The first system was a nickel affinity resin that utilizes the C-terminal histidine tag on this protein. The protein that was eluted from this resin was further purified using ion exchange chromatography (S-Sepharose Fast Flow). Aliquots of the purified protein were quick frozen in liquid nitrogen and stored at −80° C. until use. For use in binding assays, the protein was diluted in TEDK50 (50 mM Tris, 1.5 mM EDTA, pH 7.4, 5 mM DTT, 150 mM KCl) with 0.1% Chaps detergent. The receptor protein and ligand concentration was optimized such that no more than 20% of the added radiolabeled ligand was bound to the receptor.
The following day, 100 mcl of hydroxylapatite slurry (50%) was added to each tube and mixed at 10-minute intervals for 30 minutes. The hydroxylapaptite was collected by centrifugation and then washed three times with Tris-EDTA buffer (50 mM Tris, 1.5 mM EDTA, pH 7.4) containing 0.5% Titron X-100. After the final wash, the pellets were transferred to scintillation vials containing 4 ml of Biosafe II scintillation cocktail, mixed and placed in a scintillation counter. Total binding was determined from the tubes containing only radiolabeled ligand.

[2] = tested on: HL-60 cells; experiment: HL-60 differentiation (nitro blue tetrazolium reduction); assay type: cell-based, human; conditions: compared with 1α,25-dihydroxyvitamin D3; FIG. 4
Experimental: The study drugs were dissolved in ethanol and the concentrations determined using UV spectrophotometry. Serial dilutions were prepared so that a range of drug concentrations could be tested without changing the final concentration of ethanol (<0.2%) present in the cell cultures.
Human promyelocytic leukemia (HL60) cells were grown in RPMI-1640 medium containing 10% fetal bovine serum. The cells were incubated at 37° C. in the presence of 5% CO2.
HL60 cells were plated at 1.2×10^5 cells/ml. Eighteen hours after plating, cells in duplicate were treated with drug. Four days later, the cells were harvested and a nitro blue tetrazolium reduction assay was performed (Collins et al., 1979; J. Exp. Med. 149:969-974). The percentage of differentiated cells was determined by counting a total of 200 cells and recording the number that contained intracellular black-blue formazan deposits. Verification of differentiation to monocytic cells was determined by measuring phagocytic activity (data not shown).

[3] = Bone calcium mobilization (serum calcium); assay type: in vivo, rat; conditions: at equimolar quantities or even at 27 times the dose of 1α,25-dihydroxyvitamin D3; ip, 4 consecutive days; FIG. 2
Experimental: (§1) Male, weanling Sprague-Dawley rats were placed on Diet 11 (0.47% Ca) diet+AEK for one week followed by Diet 11 (0.02% Ca)+AEK for 3 weeks. The rats were then switched to a diet containing 0.47% Ca for one week followed by two weeks on a diet containing 0.02% Ca. Dose administration began during the last week on 0.02% calcium diet. Four consecutive ip doses were given approximately 24 hours apart. Twenty-four hours after the last dose, blood was collected from the severed neck and the concentration of serum calcium determined as a measure of bone calcium mobilization. The first 10 cm of the intestine was also collected for intestinal calcium transport analysis using the everted gut sac method. The everted gut sac assay was carried out as previously described by Martin and Deluca, Am. J. Physiol. 216, 1351 (1969); (DeLuca et al., U.S. Pat. No. 4,188,345), which are incorporated by reference as if fully set forth herein. Serum calcium was determined by atomic absorption spectrophotometry using a Perkin Elmer Model 3110 and by diluting the serum in 0.1% lanthanum chloride.
(§2) The negative control material is prepared by volumetrically measuring ethanol (<5%) and propylene glycol, mixing, and then placing in storage at 2 to 8° C.
(§3) The solution is mixed and then stored at 2 to 8° C. […]

[4] = tested on: 24-hydyroxylase (24Ohase) gene promoter in ROS 17/2.8 (bone) cells; experiment: In vitro transcription assay (luciferase reporter); assay type: cell-based; conditions: compared with 1α,25-dihydroxyvitamin D3; FIG. 5
Experimental: Transcription activity was measured in ROS 17/2.8 (bone) cells that were stably transfected with a 24-hydyroxylase (24Ohase) gene promoter upstream of a luciferase reporter gene (Arbour et al., 1998). Cells were given a range of doses. Sixteen hours after dosing the cells were harvested and luciferase activities were measured using a luminometer. (RLU=relative luciferase units)

[5] = Intestinal calcium transport (everted gut sac); assay type: in vivo, rat; conditions: compared with 1α,25-dihydroxyvitamin D3; ip, 4 consecutive days; FIG. 3
Experimental: as §1, §2, §3

For C=C1[C@H](O)CC(=C/C=C2\CCC[C@]3(C)[C@@H](CCCCC(C)(C)O)CC[C@@H]23)C[C@H]1O [TP-62, 2-methylene-1α,25-dihydroxy-19,21-dinorvitamin D3], the “binding to the recombinant vitamin D receptor” value [1] was “comparably active when compared to 1α,25-dihydroxyvitamin D3; also recorded: relatively high binding”, the “differentiation of HL-60 cells” value [2] was “more active than 1α,25-dihydroxyvitamin D3” and the bone calcium mobilization [3] was “lesser activity than 1α,25-dihydroxyvitamin D3; also recorded: lesser ability to mobilize calcium from bone”. For the same molecule, the “stimulating transcription of a reporter gene stably transfected in Ros17/2.8 (bone) cells” value [4] was “equally active as 1α,25-dihydroxyvitamin D3” and the “intestinal calcium transport activity” value [5] was “greater or at least equal to 1α,25-dihydroxyvitamin D3”.
